Measured values published in patent EP0934745B1, “Use of androsterone derivatives for inhibiting DNA binding of ap-1 and airway smooth muscle proliferation” (CHARLOTTE-MECKLENBURG HOSPITAL doing business as Carolinas …, priority 1998, dated 1999).
pIC50: −log10 of the molar value.

Tested on: rat tracheal smooth muscle
Assay: Proliferation of cultured airway smooth muscle (MTT reduction, cell counts)
Format: cell-based
Conditions: Rattus norvegicus; 50,000 cells/well cultured in 10% FBS for 48 hours; MTT reduction (Figure 3D); read-out: 50% inhibitory concentration
Description: Polyclonal horseradish peroxidase anti-rabbit IgG was from Transduction Laboratories (Lexington, KY). M-MLV reverse transcriptase was from Life Technologies (Gaithersburg, MD). All other materials were obtained from Sigma unless specified. Measurement of Cultured Airway Smooth Muscle Proliferation. Rat tracheal smooth muscle was cultured by euthanizing rats with pentobarbital overdose and removal of their tracheas. The posterior tracheal membrane was isolated, minced and digested twice for 30 minutes at 37°C. in HBSS containing 0.2% type IV collagenase and 0.05% type IV elastase. Each enzyme digest was collected and centrifuged for 5 minutes at 500 g at room temperature. The supernatant was removed and the pellet was resuspended in DMEM supplemented with 10% FBS, nonessential amino acids, penicillin (100 U/ml), streptomycin (100 µg/ml) and amphotericin (250 ng/ml). Cells were seeded in this medium into 25-cm^2 flasks at 2 x 10^5 cells per flask and incubated in a humidified atmosphere of 5% CO2/95% air at 37°C. Upon reaching confluence, cells were detached with 0.25% trypsin-0.002% EDTA solution for passage.
Proliferation of cultured airway smooth muscle was quantitated using modification of a previously reported colorimetric method based upon metabolic reduction of the soluble yellow tetrazolium dye 3-[4,5-dimethylthiazol]-2yl-2,5-diphenyl tetrazolium bromide (MTT) to its insoluble purple formazan by the action of mitochondrial succinyl dehydrogenase. See Hirst, S.J., Barnes, P.J., and Twort, C.H.C., "Quantifying proliferation of cultured human and rabbit airway smooth muscle in response to serum and platelet derived growth factor," Am. J. Respir. Cell Mol. Biol., 7, 574-581 (1992). This assay empirically distinguishes between dead and living cells. For proliferation studies, cells were seeded into 24-well uncoated plastic plates at 15,000-50,000 cells per well and cultured with DMEM and mitogens. After 24-96 hours the medium was replaced with 1 ml/well fresh DMEM containing 100 µg/ml MTT and 0.5% FBS, and plates were incubated an additional hour MTT-containing medium was removed, cells were washed twice with 1 ml of sterile Dulbecco's modified phosphate buffered saline without Ca^2+ or Mg^2+ (DPBS), 0.5 ml dimethylsulfoxide (DMSO) was added to each well, and the absorbance of the solubilized purple formazan dye was measured at 540 nm on a Shimadzu UV160U spectrophotometer. A total of 4-6 wells was studied at each treatment condition.
The optimum concentration of FBS for use as a mitogenic stimulus was determined by incubating 15,000 cells per well with DMEM containing 0.25, 1.0, 5.0 or 10.0% FBS and MTT reduction was determined after 24, 48, 72 or 96 hours. […] After 24 hours, cells were washed twice with DPBS, fixed and permeabilized by two sequential 5 minute exposures to ice-cold methanol, stained with Giemsa-modified Wright's stain for 3 minutes and washed with DPBS. Cell counts were performed on 10 random fields at 40 power using a 0.01-cm^2 ocular grid. Cell Culture Treatments for Measurement of Airway Smooth Muscle Proliferation. The effect of dehydroepiandrosterone (DHEA) and 16α-bromoepiandrosterone (16α-BrEA) on cellular proliferation was studied in cultures stimulated with 0.5-10% FBS or 1-50 ng/ml recombinant human platelet derived growth factor (PDGF-AA). […] See, for example, the method of Le, Y. Y. , and Xu, R.B., "The molecular mechanism of the action of the pharmacological doses of glucocorticoids. Studies on the low-affinity glucocorticoid receptor," Receptor, 5, 63-69 (1995).

C[C@@H]1C[C@H]2[C@@H]3CCC4=CC(=O)C=C[C@]4(C)[C@@]3(F)[C@@H](O)C[C@]2(C)[C@@]1(O)C(=O)CO [dexamethasone, reference compound]
pIC50: 5.00
